pIC50: −log10 of the molar value.
Target: T1, RIPK2 enzyme (Homo sapiens, UniProt O43353)
T1 construct: purchased Carna 09-128
Test: RIPK2 inhibition (ADP-Glo Kinase Assay)
Type: biochemical
Conditions: RIPK2 5 nM, ATP 150 μM, MBP substrate, read-out: RIPK2 IC50
In short: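 Swine MBP substrate; compound and 5 nM RIPK2 first mixed for 30 min at room temperature; buffer pH 7.5 HEPES 50 mM with 10 mM MgCl2, 2 mM DTT, 1 mM EGTA, Brij-35, BSA.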

T1 sequence (O43353 1-299 limits assumed): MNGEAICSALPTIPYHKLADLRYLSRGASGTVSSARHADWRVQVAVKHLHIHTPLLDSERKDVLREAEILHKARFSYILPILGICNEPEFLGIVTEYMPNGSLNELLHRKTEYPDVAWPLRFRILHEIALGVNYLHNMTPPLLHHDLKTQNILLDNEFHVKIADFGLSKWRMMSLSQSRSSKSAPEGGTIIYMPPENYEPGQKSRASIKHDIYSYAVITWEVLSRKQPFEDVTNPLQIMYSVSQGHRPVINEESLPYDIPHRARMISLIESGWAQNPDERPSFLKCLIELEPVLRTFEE

Question: `Cc1cc(CC(=O)Nc2cnn(C(C)(C)C)c2)ccc1Oc1ccnc2ccc(N3C(=O)CCC3C)cc12` (single isomer, unassigned) [Compound 291, N-(1-(tert-butyl)-1H-pyrazol-4-yl)-2-(3-methyl-4-((6-(2-methyl-5-oxopyrrolidin-1-yl)quinolin-4-yl)oxy)phenyl) acetamide] was tested. Which pIC50 did it give?
Answer: Its pIC50 is greater than 8.60.

Question: `CCn1nc(NC(=O)Cc2ccc(Oc3ccnc4ccc(S(C)(=O)=O)cc34)cc2F)cc1C(C)C` [Compound 148, N-(1-ethyl-5-isopropyl-1H-pyrazol-3-yl)-2-(2-fluoro-4-((6-(methylsulfonyl)quinolin-4-yl)oxy)phenyl)acetamide] was tested. Which pIC50 did it give?
Answer: Its pIC50 is greater than 8.60.

Question: `[2H]C([2H])([2H])c1cc(CC(=O)Nc2cnn(C(C)(C)C)c2)ccc1Oc1ccnc2ccc(OC3CCNCC3)cc12` [Compound 104, N-(1-(tert-butyl)-1H-pyrazol-4-yl)-2-(3-(methyl-d3)-4-((6-(piperidin-4-yloxy)quinolin-4-yl)oxy)phenyl) acetamide] was tested. Which pIC50 did it give?
Answer: The pIC50 was greater than 8.60.

Question: With `Cc1cc(CC(=O)Nc2cnn(C(C)(C)C)c2)ccc1Oc1ccnc2ccc(OC[C@@H]3CCNC3)cc12` [Compound 192, (R)-N-(1-(tert-butyl)-1H-pyrazol-4-yl)-2-(3-methyl-4-((6-(pyrrolidin-3-ylmethoxy)quinolin-4-yl)oxy)phenyl) acetamide] as the molecule, how does the pIC50 read?
Answer: The pIC50 was greater than 8.60.

Question: With `CC(C)c1ccnc(NC(=O)Cc2ccc(Oc3ncnc4ccc(F)cc34)cc2F)c1` [Compound 22, 2-(2-fluoro-4-((6-fluoroquinazolin-4-yl)oxy)phenyl)-N-(4-isopropylpyridin-2-yl)acetamide] as the molecule, how does the pIC50 read?
Answer: The pIC50 was 7.62.

Question: With `COc1ccc2nccc(Oc3cnc(CC(=O)Nc4cc(C(C)(C)C)[nH]n4)c(F)c3)c2c1` [Compound 13, N-(5-(tert-butyl)-1H-pyrazol-3-yl)-2-(3-fluoro-5-((6-methoxyquinolin-4-yl)oxy)pyridin-2-yl)acetamide] as the molecule, how does the pIC50 read?
Answer: The pIC50 was 8.46.

Question: How did the pIC50 turn out when `COc1cc2nccc(Oc3ccc(CC(=O)Nc4cnn(C(C)(C)C)c4)cc3C)c2cc1S(C)(=O)=O` [Compound 216, N-(1-(tert-butyl)-1H-pyrazol-4-yl)-2-(4-((7-methoxy-6-(methylsulfonyl)quinolin-4-yl)oxy)-3-methylphenyl) acetamide] was run?
Answer: Its pIC50 is greater than 8.60.

Question: With `Cc1c(Oc2ccnc3ccc(S(C)(=O)=O)cc23)ccc(CC(=O)Nc2cc(C(C)(C)CO)n[nH]2)c1F` [Compound 329, 2-(2-fluoro-3-methyl-4-((6-(methylsulfonyl)quinolin-4-yl)oxy)phenyl)-N-(5-(1-hydroxy-2-methylpropan-2-yl)-1H-pyrazol-3-yl)acetamide] as the molecule, how does the pIC50 read?
Answer: Its pIC50 is greater than 8.60.

Question: `Cc1cc(CC(=O)Nc2cnn(C(C)(C)C)c2)ccc1Oc1ccnc2ccc(C(=O)N3CC(C#N)C3)cc12` [Compound 209, N-(1-(tert-butyl)-1H-pyrazol-4-yl)-2-(4-((6-(3-cyano-azetidine-1-carbonyl)quinolin-4-yl)oxy)-3-methyl-phenyl) acetamide] was tested. Which pIC50 did it give?
Answer: Its pIC50 is greater than 8.60.

Question: `CN(C)C1CCN(c2ccc3nccc(Oc4cnc(CC(=O)Nc5cnn(C(C)(C)C)c5)c(F)c4)c3c2)C1` (single isomer, unassigned) [Compound 140, N-(1-(tert-butyl)-1H-pyrazol-4-yl)-2-(5-((6-(3-(dimethylamino)pyrrolidin-1-yl)quinolin-4-yl)oxy)-3-fluoropyridin-2-yl)acetamide] was tested. Which pIC50 did it give?
Answer: The pIC50 was 8.13.

Question: With `Cc1cc(CC(=O)Nc2cnn(C(C)C)c2)ccc1Oc1ccnc2ccc(S(C)(=O)=O)cc12` [Compound 212, N-(1-isopropyl-1H-pyrazol-4-yl)-2-(3-methyl-4-((6-(methylsulfonyl)quinolin-4-yl)oxy)phenyl)acetamide] as the molecule, how does the pIC50 read?
Answer: The pIC50 was greater than 8.60.

Question: With `CC(C)(C)c1cc(NC(=O)Cc2ncc(Oc3ncnc4ccc(F)cc34)cc2F)ncn1` [Compound 52, N-(6-(tert-butyl)pyrimidin-4-yl)-2-(3-fluoro-5-((6-fluoroquinazolin-4-yl)oxy)pyridin-2-yl)acetamide] as the molecule, how does the pIC50 read?
Answer: The pIC50 was 7.27.

Question: With `CCOc1ccc2nccc(Oc3cnc(CC(=O)Nc4cnn(C(C)(C)C)c4)c(F)c3)c2c1` [Compound 48, N-(1-(tert-butyl)-1H-pyrazol-4-yl)-2-(5-((6-ethoxyquinolin-4-yl)oxy)-3-fluoropyridin-2-yl)acetamide] as the molecule, how does the pIC50 read?
Answer: Its pIC50 is 8.04.

From patent US12624018B1, “Inhibitors of RIPK2 and medical uses thereof” (Odyssey Therapeutics, Inc., priority 2022, dated 2026)
